Numbered stars: 1 amine (or outer) side, 2 acyl side, 3 side chain; on linkers, the order of the positions; unused ones are H or OH. Bridge positions count the residues as written; N and C are the ends. Square brackets hold non-standard residues; d marks the D form. Side chains are listed from the residue outwards. Peptide text beside a SMILES is read from it. * marks the point of attachment. Trp(1-Me) = Cn1cc(C[C@H](N)C(=O)O)c2ccccc21; C18 diacid = O=C(O)CCCCCCCCCCCCCCCCC(=O)*; γGlu = O=C(O)[C@H](CCC(=O)[*:2])N[*:1]; AEEA = NCCOCCOCC(=O)O; CH2 = C([*:1])[*:2]; Sar = CNCC(=O)O Bounds are passed on as bounds.

This assay has as its system classical complement pathway. The assay can be described thus: In vitro haemolysis assay (inhibition of classical complement pathway). The following applies: human serum, sensitized sheep RBC, 30 minutes at 37° C., absorbance at 405 nm, n=>2; read-out: IC50, inhibition of hemolysis. The format is cell-based. As to the method: The in vitro effect of some of the compounds described herein was assessed by measuring their inhibitory effect of the classical complement pathway in a haemolysis assay.
Briefly, compounds described herein and reference compounds were dissolved in DMSO and diluted in Tris/Casein Assay Buffer (10 mM Tris, 145 mM NaCl, 0.5 mM MgCl2, 0.15 mM CaCl2, and 0.1% W/V casein, adjusted to pH 7.4) as 9-point serial dilutions in a 96-well plate. Sensitized sheep red blood cells (RBC) coated with rabbit anti-sheep erythrocyte antiserum (Complement Technology, Inc., TX, USA) were washed in Tris/asein Assay Buffer. 50 μL from each well of diluted compound was added to a 96-well plate containing 50 μL diluted human serum (Complement Technology, Inc., TX, USA) and incubated for 15 minutes at room temperature. The serum dilution factor was optimized for every serum batch to obtain 70-90% of maximal haemolysis using the protocol. Then 50 μL sensitized sheep RBCs were added to all wells ([…]).
After 30 minutes of incubation at 37° C. with gentle agitation, the reaction was stopped by addition of 50 μL Tris STOP Buffer per well (10 mM EDTA, 10 mM Tris, 145 mM NaCl adjusted to pH 7.4). The RBCs were then removed by centrifugation and the resulting supernatant measured for hemolysis by absorbance at 405 nm.
The response was normalized relative to a positive and negative control (vehicle) to calculate the IC50 (nM) from the concentration response curve using the 4-parameter logistic (4PL) nonlinear model for curve fitting (Table 2). All values are based on n=>2 independent determinations.
Turning to `CC[C@H](C)[C@@H]1NC(=O)[C@@H](NC(=O)[C@H](Cc2ccccc2)NC(=O)[C@H](CCC(=O)O)NC(=O)[C@H](CCC(N)=O)NC(=O)[C@H](CCCCN)NC(=O)[C@H](CO)NC(C)=O)CSCSC[C@@H](C(=O)N[C@H](C(=O)N[C@@H](CCC(=O)O)C(=O)NCC(=O)N[C@@H](CCC(=O)O)C(=O)NCCOCCOCC(=O)NCCOCCOCC(=O)N[C@@H](CCCCNC(=O)CC[C@H](NC(=O)CNC(=O)CC[C@H](NC(=O)CCCCCCCCCCCCCCCCC(=O)O)C(=O)O)C(=O)O)C(N)=O)[C@@H](C)O)NC(=O)[C@H](CCCNC(=N)N)NC(=O)[C@H](Cc2c[nH]cn2)NC(=O)[C@H](CCC(=O)O)NC(=O)CN(C)C(=O)[C@H](Cc2c[nH]c3ccccc23)NC(=O)[C@H](CC(=O)O)NC(=O)[C@H](CCC(N)=O)NC(=O)[C@H](Cc2cn(C)c3ccccc23)NC1=O` [Compound 26, Ac-SKQEF[C(1)]I[1-Me-Trp]QDW[Sar]EHR[C(1)]TEGE[Peg3][Peg3]-K([17-Carboxy-heptadecanoyl][yGlu]G[yGlu])-NH2] (Ac-SKQEFCI[Trp(1-Me)]QDW[Sar]EHRCTEGE[AEEA][AEEA]K([γGlu-Gly-γGlu-C18 diacid])-NH2; linker 6-16 via CH2), the IC50 was < 100 nM.
Consider `CC[C@H](C)[C@@H]1NC(=O)[C@@H](NC(=O)[C@H](Cc2ccccc2)NC(=O)[C@H](CCC(=O)O)NC(=O)[C@H](CO)NC(C)=O)CSCSC[C@@H](C(=O)N(C)CC(=O)N[C@@H](CCC(=O)O)C(=O)NCC(=O)N[C@@H](CCC(=O)O)C(=O)NCCOCCOCC(=O)NCCOCCOCC(=O)N[C@@H](CCCCNC(=O)CC[C@H](NC(=O)CNC(=O)CC[C@H](NC(=O)CCCCCCCCCCCCCCCCC(=O)O)C(=O)O)C(=O)O)C(N)=O)NC(=O)[C@H](CCCNC(=N)N)NC(=O)[C@H](Cc2c[nH]cn2)NC(=O)[C@H](CCC(=O)O)NC(=O)CNC(=O)[C@H](Cc2c[nH]c3ccccc23)NC(=O)[C@H](CC(=O)O)NC(=O)[C@H](CCC(N)=O)NC(=O)[C@H](Cc2cn(C)c3ccccc23)NC1=O` [Compound 2, Ac-SEF[C(1)]I[1-Me-Trp]QDWGEHR[C(1)][Sar]EGE[Peg3][Peg3]-K([17-Carboxy-heptadecanoyl][yGlu]G[yGlu])-NH2] (Ac-SEFCI[Trp(1-Me)]QDWGEHRC[Sar]EGE[AEEA][AEEA]K([γGlu-Gly-γGlu-C18 diacid])-NH2; linker 4-14 via CH2), for which the IC50 is < 500 nM.
Regarding “Ac-SEF[C(1)]I[1-Me-Trp]QDWGEHR[C(1)]TGAES[Peg3][Peg3]-K([17-Carboxy-heptadecanoyl][yGlu]G[yGlu])-NH2 [Compound 14]”, the IC50 was < 250 nM.
Consider `CC[C@H](C)[C@@H]1NC(=O)[C@@H](NC(=O)[C@H](Cc2ccccc2)NC(=O)[C@H](CCC(=O)O)NC(C)=O)CSCSC[C@@H](C(=O)N[C@H](C(=O)N[C@@H](CCC(=O)O)C(=O)N[C@@H](C)C(=O)NCCOCCOCC(=O)NCCOCCOCC(=O)N[C@@H](CCCCNC(=O)CC[C@H](NC(=O)CNC(=O)CC[C@H](NC(=O)CCCCCCCCCCCCCCCCC(=O)O)C(=O)O)C(=O)O)C(N)=O)[C@@H](C)O)NC(=O)[C@H](CCCNC(=N)N)NC(=O)[C@H](Cc2c[nH]cn2)NC(=O)[C@H](CCC(=O)O)NC(=O)CN(C)C(=O)[C@H](Cc2c[nH]c3ccccc23)NC(=O)[C@H](CC(=O)O)NC(=O)[C@H](CCC(N)=O)NC(=O)[C@H](Cc2cn(C)c3ccccc23)NC1=O` [Compound 12, Ac-EF[C(1)]I[1-Me-Trp]QDW[Sar]EHR[C(1)]TEA[Peg3][Peg3]-K([17-Carboxy-heptadecanoyl][yGlu]G[yGlu])-NH2] (Ac-EFCI[Trp(1-Me)]QDW[Sar]EHRCTEA[AEEA][AEEA]K([γGlu-Gly-γGlu-C18 diacid])-NH2; linker 3-13 via CH2), for which the IC50 was < 100 nM.

In general, IC50 refers to the midpoint of a concentration-inhibition curve.

The record behind these values is patent publication US20230287051A1, “INHIBITORS OF COMPLEMENT FACTOR C3 AND THEIR MEDICAL USES” (ZP SPV 3 K/S, priority 2020, published 2023).
